Test results as given in article PMC5679075 (Nature, 2017).

Target: T1, LepI (Aspergillus flavus, UniProt B8NJH3)
T1 sequence (B8NJH3 1-387): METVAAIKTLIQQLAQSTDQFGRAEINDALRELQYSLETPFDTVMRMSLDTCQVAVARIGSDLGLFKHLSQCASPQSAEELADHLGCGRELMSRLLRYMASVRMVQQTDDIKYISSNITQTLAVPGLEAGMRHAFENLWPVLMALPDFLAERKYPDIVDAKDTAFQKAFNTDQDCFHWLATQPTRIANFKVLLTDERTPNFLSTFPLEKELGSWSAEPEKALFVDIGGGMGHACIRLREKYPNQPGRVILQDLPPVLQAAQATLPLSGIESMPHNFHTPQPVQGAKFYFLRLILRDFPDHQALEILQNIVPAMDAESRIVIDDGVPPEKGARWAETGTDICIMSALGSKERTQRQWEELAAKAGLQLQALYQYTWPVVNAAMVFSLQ
Assay: HPLC time course, inhibition of retro-Claisen rearrangement
Assay type: biochemical
Conditions: read-out: % inhibition at 250 μM

**Q.** Which inhibition at 250 µM does the source give for Nc1ncnc2c1ncn2[C@@H]1O[C@H](CSCC[C@H](N)C(=O)O)[C@@H](O)[C@H]1O [SAH] here?
**A.** The inhibition at 250 µM was > 90%.
